Source: ChEMBL document CHEMBL5465560, “Selectivity Literature for EUbOPEN Chemogenomic Library” (2024)
One block for each compound: values may come before it.

Legend:
[1] = molecular target: Receptor tyrosine-protein kinase erbB-2 (Homo sapiens, UniProt P04626); experiment: Selectivity interaction (KinomeScan (DiscoverX)) EUB0001049a ERBB2; details: at 1 µM
[2] = molecular target: T1, Phosphatidylinositol 4,5-bisphosphate 3-kinase catalytic subunit delta isoform (Homo sapiens) (UniProt O00329); experiment: Selectivity interaction (KinomeScan (DiscoverX)) EUB0001049a PIK3CD; details: at 1 µM
T1 sequence (whole entry): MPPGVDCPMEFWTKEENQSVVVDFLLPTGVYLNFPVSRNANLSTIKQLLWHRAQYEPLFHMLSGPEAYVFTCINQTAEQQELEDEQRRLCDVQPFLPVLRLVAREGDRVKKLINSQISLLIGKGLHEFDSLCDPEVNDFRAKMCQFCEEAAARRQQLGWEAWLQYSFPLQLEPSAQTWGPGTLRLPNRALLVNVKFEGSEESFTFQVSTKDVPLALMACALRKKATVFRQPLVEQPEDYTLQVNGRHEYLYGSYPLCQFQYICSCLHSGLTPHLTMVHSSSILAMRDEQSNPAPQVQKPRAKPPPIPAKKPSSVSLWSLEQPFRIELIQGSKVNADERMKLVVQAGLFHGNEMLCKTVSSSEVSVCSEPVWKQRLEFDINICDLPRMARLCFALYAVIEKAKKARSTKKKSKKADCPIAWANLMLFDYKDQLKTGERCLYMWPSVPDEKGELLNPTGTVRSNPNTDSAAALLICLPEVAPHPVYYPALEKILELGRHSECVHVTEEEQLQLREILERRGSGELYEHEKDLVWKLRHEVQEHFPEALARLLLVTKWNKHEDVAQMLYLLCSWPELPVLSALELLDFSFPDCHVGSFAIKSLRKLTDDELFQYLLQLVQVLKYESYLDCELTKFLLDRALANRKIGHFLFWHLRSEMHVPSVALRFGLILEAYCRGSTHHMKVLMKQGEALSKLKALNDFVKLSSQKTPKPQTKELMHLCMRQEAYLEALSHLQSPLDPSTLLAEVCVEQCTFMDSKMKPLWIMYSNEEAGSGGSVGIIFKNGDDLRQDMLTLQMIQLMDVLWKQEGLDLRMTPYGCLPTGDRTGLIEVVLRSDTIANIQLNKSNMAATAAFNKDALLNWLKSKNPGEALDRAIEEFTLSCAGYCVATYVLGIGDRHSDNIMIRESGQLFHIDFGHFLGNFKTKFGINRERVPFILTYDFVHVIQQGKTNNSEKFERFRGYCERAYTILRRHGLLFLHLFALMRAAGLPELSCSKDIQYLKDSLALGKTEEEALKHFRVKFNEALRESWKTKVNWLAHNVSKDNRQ

[3] = molecular target: T2, Eukaryotic elongation factor 2 kinase (Homo sapiens) (UniProt O00418); experiment: Selectivity interaction (ActivX KiNativ screen (kinase selectivity in THP-1 cell lysates)) EUB0000639a EEF2K; assay type: subcellular; details: lysate
T2 sequence (whole entry): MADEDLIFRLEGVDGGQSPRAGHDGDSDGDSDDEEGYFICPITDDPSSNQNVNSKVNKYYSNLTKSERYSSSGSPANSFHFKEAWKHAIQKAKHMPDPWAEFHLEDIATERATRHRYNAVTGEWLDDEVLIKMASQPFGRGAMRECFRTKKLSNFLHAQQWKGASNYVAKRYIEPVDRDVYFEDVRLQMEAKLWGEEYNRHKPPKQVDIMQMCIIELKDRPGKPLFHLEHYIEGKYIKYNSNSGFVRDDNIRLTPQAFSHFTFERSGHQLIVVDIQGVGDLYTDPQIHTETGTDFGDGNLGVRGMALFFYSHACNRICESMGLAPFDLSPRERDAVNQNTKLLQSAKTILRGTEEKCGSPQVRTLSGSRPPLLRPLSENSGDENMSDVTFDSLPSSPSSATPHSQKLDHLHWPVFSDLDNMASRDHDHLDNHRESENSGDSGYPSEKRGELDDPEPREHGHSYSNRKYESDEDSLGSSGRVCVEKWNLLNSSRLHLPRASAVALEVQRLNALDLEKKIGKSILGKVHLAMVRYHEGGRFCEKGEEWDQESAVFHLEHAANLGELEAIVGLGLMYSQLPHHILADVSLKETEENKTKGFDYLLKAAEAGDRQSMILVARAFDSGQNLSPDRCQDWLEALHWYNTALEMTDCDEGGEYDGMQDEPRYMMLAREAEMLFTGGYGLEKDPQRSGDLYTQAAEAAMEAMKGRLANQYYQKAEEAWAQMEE

[4] = molecular target: Calcium/calmodulin-dependent protein kinase type 1 (Homo sapiens) (UniProt Q14012); experiment: Selectivity interaction (Kinase panel (literature)) EUB0001199aCl CAMK1; details: at 1 µM
Calcium/calmodulin-dependent protein kinase type 1 (Homo sapiens), sequence (Q14012 whole entry, looked up): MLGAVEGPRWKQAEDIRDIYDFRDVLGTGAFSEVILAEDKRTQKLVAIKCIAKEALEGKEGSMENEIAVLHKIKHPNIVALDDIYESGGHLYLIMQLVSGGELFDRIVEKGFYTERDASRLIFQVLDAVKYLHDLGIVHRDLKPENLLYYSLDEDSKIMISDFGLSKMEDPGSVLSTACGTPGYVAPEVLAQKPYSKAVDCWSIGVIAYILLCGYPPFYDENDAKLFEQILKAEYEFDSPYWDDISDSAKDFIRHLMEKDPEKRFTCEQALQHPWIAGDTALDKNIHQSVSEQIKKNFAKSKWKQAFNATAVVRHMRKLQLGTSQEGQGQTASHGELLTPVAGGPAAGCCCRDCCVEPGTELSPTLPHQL

[5] = molecular target: Protein arginine N-methyltransferase 1 (Homo sapiens, UniProt Q99873); experiment: Selectivity interaction (Methyltransferase screen (radiometric assays, panel of 8 PRMTs, 21 protein lysine methyltransferases, 3 DNA methyltransferases, and one RNA methyltransferase)) EUB0000272b PRMT1
Protein arginine N-methyltransferase 1, sequence (Q99873 whole entry, looked up): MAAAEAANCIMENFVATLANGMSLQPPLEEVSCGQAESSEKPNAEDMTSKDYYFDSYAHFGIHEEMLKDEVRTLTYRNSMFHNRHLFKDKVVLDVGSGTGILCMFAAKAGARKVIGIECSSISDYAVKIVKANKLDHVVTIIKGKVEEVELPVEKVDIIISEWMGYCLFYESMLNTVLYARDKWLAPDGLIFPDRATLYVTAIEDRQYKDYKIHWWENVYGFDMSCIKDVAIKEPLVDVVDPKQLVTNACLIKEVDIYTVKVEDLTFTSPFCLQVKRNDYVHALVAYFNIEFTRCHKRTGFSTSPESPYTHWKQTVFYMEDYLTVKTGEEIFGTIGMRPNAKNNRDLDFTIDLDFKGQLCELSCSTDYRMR

[6] = molecular target: STE20/SPS1-related proline-alanine-rich protein kinase (Homo sapiens) (UniProt Q9UEW8); experiment: Selectivity interaction (ProQinase) EUB0000171b STK39
[7] = molecular target: Serine/threonine-protein kinase MARK2 (Homo sapiens) (UniProt Q7KZI7); experiment: Selectivity interaction (KinomeScan (DiscoverX)) EUB0000655a MARK2; details: at 10 µM
Serine/threonine-protein kinase MARK2 (Homo sapiens), sequence (Q7KZI7 whole entry): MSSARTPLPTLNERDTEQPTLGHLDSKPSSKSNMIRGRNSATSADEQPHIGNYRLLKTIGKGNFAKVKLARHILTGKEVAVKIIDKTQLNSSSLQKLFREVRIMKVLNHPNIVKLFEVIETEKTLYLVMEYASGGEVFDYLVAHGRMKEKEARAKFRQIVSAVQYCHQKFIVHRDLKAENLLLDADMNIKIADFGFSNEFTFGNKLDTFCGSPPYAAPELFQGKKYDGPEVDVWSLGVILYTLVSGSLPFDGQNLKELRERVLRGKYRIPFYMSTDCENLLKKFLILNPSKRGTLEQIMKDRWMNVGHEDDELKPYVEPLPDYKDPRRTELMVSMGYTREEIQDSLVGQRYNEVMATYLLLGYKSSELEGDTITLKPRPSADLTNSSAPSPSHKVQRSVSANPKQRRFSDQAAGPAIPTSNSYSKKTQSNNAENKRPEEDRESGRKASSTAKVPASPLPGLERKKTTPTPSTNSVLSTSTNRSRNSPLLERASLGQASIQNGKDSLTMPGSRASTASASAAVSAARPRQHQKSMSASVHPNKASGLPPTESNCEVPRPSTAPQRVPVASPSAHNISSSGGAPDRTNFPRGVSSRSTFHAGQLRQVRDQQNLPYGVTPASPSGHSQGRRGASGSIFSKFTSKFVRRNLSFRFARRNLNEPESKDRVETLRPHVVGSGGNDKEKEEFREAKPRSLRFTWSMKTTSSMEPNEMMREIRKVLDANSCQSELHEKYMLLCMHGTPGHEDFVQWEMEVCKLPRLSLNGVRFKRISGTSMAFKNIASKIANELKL

[8] = molecular target: T3, Uncharacterized serine/threonine-protein kinase SBK3 (Homo sapiens) (UniProt P0C264); experiment: Selectivity interaction (KinomeScan (DiscoverX)) EUB0000655a SBK3; details: at 10 µM
T3 sequence (whole entry): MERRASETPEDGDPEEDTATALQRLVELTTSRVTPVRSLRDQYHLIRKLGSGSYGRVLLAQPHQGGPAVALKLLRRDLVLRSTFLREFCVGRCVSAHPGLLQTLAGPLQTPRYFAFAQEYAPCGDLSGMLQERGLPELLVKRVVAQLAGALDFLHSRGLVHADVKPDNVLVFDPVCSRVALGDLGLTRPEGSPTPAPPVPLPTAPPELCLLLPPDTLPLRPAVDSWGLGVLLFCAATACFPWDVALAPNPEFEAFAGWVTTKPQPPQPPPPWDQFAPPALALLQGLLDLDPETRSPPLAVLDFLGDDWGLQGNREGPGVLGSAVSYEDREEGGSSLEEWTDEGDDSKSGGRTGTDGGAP

[9] = molecular target: Calcium/calmodulin-dependent protein kinase type II subunit alpha (Homo sapiens, UniProt Q9UQM7); experiment: Selectivity interaction (Kinase panel (KiNativ target engagement assay in Jurkat cells)) EUB0001635a CAMK2A; assay type: cell-based; details: Selectivity number of off-targets 0.0, Selectivity number of targets 233.0, Source Knowledge https://www.sciencedirect.com/science/article/pii/S2451945619300674?via%3Dihub, at 1 µM
Calcium/calmodulin-dependent protein kinase type II subunit alpha, sequence (Q9UQM7 whole entry): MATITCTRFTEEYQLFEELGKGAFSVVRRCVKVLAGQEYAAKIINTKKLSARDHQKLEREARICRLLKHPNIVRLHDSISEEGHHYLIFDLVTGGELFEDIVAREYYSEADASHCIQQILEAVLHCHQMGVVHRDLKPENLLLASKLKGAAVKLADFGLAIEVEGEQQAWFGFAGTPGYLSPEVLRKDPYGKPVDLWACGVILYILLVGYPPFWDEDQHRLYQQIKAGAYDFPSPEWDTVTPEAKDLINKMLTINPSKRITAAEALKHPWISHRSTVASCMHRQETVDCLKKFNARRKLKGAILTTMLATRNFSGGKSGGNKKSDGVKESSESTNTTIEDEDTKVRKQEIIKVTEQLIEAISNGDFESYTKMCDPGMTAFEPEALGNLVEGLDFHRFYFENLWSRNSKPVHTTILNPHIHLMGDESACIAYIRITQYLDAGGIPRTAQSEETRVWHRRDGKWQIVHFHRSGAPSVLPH

Receptor tyrosine-protein kinase erbB-2, sequence (P04626 whole entry, canonical isoform): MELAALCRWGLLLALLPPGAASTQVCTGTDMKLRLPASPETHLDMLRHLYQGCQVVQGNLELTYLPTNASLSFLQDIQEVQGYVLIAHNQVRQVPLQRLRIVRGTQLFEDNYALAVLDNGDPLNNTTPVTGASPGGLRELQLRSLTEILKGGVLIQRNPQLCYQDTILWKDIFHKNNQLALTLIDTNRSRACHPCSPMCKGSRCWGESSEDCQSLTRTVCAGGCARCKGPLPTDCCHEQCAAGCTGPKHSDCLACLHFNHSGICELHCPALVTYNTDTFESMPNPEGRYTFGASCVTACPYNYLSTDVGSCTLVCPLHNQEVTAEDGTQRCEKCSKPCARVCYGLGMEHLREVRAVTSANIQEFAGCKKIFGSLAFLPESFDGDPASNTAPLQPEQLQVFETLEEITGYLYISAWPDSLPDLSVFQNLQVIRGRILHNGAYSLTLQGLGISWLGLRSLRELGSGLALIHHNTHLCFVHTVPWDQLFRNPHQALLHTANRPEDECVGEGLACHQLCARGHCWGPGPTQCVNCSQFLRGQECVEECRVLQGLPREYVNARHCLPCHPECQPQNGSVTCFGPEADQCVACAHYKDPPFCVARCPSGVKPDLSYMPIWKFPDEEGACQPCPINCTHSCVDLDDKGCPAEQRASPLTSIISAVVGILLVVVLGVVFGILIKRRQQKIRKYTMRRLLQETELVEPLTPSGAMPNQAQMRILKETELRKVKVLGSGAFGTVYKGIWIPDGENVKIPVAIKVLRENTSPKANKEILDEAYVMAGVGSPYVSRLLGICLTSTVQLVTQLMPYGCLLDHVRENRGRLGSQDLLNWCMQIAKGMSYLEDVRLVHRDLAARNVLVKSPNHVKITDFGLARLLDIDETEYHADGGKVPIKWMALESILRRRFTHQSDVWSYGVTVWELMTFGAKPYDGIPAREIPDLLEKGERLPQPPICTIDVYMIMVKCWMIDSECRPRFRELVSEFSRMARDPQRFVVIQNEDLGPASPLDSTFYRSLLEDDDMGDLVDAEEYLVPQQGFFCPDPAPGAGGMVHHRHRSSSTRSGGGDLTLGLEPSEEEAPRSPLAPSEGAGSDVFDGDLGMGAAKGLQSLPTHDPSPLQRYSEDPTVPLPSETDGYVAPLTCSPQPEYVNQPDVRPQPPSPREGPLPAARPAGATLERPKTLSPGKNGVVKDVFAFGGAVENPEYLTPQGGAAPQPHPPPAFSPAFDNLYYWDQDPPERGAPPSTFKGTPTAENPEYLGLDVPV

SMILES: COc1cc(Nc2nc(C)cc(-c3cnn4nc(OC)ccc34)n2)cc(C(F)(F)F)c1
% of control [1]: 100%
% of control [2]: 88%

SMILES: CC[C@@H]1[C@H](F)C(=O)N[C@@H]1COc1nccc2cc(C(N)=O)c(OC)cc12 [ZIMLOVISERTIB]
% of inhibition ([3]; at 0.01 µM): 4.3%
% of inhibition ([3]; at 0.04 µM): -14.7%
% of inhibition ([3]; at 0.2 µM): 2.9%
% of inhibition ([3]; at 1 µM): -15.8%
% of inhibition ([3]; at 5 µM): -3.6%

SMILES: CN(C)CCOc1ccc(-c2nc(-c3ccncc3)c(-c3ccc4c(c3)CC/C4=N\O)[nH]2)cc1
% of control [7]: 100%
% of control [8]: 100%

SMILES: C=CC(=O)Nc1ccc(C(=O)Nc2[nH]nc3c2CN(C(=O)N[C@H](CN(C)C)c2ccccc2)C3(C)C)cc1
% of engagement [9]: 24.5%

Now from value to compound:

% of inhibition [4]: -9%
SMILES: CN1Cc2nccc(-c3cn(C)nc3-c3ccc(F)cc3)c2C1=O

% of activity ([5]; at 1 µM): 98.7%
% of activity ([5]; at 10 µM): 101%
SMILES: Cc1cc(C)cc([C@H]2c3cc(C)ccc3NC(=O)CN2C(=O)c2ccc(Br)s2)c1

% of control ([6]; at 1 µM): 100%
% of control ([6]; at 5 µM): 73%
SMILES: C=CC(=O)Nc1cccc(C(=O)Nc2ccc(Nc3cc(-c4[nH]c(SC)nc4C)ccn3)cc2)c1
